Measurements as given in patent US9492543B2, “Compositions for treating cognitive disorders” (priority 2009, dated 2016).

Key:
[1] = test system: hippocampal excitatory synaptic transmission (fEPSP, perforant path - dentate gyrus); assay: Basal excitatory synaptic transmission (fEPSP amplitude) in the hippocampus of the freely moving rat; format: in vivo, Sprague-Dawley rat; settings: for activity on basal excitatory synaptic transmission (in words): Compound X 6 mg/kg ip, physostigmine 0.1 mg/kg ip, drug vs. vehicle, paired t-test; for DRUG FEPSP AMPLITUDE [% OF PRE-VEHICLE BASELINE ± S.E.M.]: ip, Compound X 6.0 mg/kg, physostigmine 0.1 mg/kg, 15 min post-drug period with largest increase
Procedure: (§1) Experiments were carried out in freely moving male Sprague-Dawley rats implanted with depth stimulating and recording electrodes in the hippocampus and olfactory cortex to (1) characterize the effect of a compound of Formula 1 ((2R,3S)-2-amino-3-hydroxy-3-(pyridin-4-yl)-1-(pyrrolidin-1-yl)propan-1-one) (“Compound X”) on basal excitatory synaptic transmission, a measure positively associated with behavioral performance and encoding of information; and (2) determine a possible interaction on synaptic transmission when Compound X is coapplied with physostigmine and galantamine—both members of the cholinesterase inhibitor family which has pro-cognitive efficacy in Alzheimer's Disease patients.
(§2) Field excitatory post-synaptic responses (fEPSPs) evoked by electrical stimulation were recorded in freely moving animals with depth electrodes permanently implanted in the hippocampus and olfactory cortex. Experiment 1 compared the effect of one dose level (6 mg/kg ip) of Compound X on hippocampal and cortical fEPSPs with vehicle control data. Experiment 2 compared the effect of Compound X (6 mg/kg ip) combined with either physostigmine (0.1 mg/kg ip) or galantamine (1 mg/kg ip) on hippocampal and cortical fEPSPs with vehicle control data.
(§3) Male Sprague Dawley rats, 3 months of age at the time of surgery, were used. The animals were housed individually and kept in a 12:12 light/dark cycle with food and water available ad libitum.
(§4) Preparation of animals with chronically implanted electrodes followed procedures essentially as described in earlier published work (U. Staubli and J. Scafidi, J. J. Neurosci. 17: 4820-4828 (1997)). For recordings from the hippocampus, the stimulating electrode was placed in the perforant path within the entorhinal cortex, and the recording electrode in the hilus of the hippocampal dentate gyrus. For recording from the olfactory cortex, the stimulating electrode was placed in the olfactory tract and the recording electrode in the layer I of the piriform cortex.
Ten days following recovery from surgery, the animals were acclimated to the recording cage as well as to the attachment of a recording lead to the head stage. Recording sessions began by adjusting current intensities (25-100 μA) and pulse width of the monophasic stimulation pulse (100-250 μsec) to produce a field excitatory postsynaptic potential (fEPSP) that was 50-60% of the maximum amplitude of the population-spike free response which typically ranged between 4 and 8 mV. Recording signals were amplified and filtered with a band pass of 1 Hz to 5 kHz and fed into a PC running specialized software (NacGather) that digitizes measures and stores the evoked responses. […]

[2] = test system: excitatory synaptic transmission in the olfactory cortex (fEPSP, olfactory tract - piriform cortex layer I); assay: Basal excitatory synaptic transmission (fEPSP amplitude) in the olfactory cortex of the freely moving rat; format: in vivo, Sprague-Dawley rat; settings: for activity on basal excitatory synaptic transmission (in words): Compound X 6 mg/kg ip, drug vs. vehicle, paired t-test; for DRUG FEPSP AMPLITUDE [% OF PRE-VEHICLE BASELINE ± S.E.M.]: ip, Compound X 6.0 mg/kg, 15 min post-drug period with largest increase
Procedure: as §1, §2, §3, §4
Ten days following recovery from surgery, the animals were acclimated to the recording cage as well as to the attachment of a recording lead to the head stage. Recording sessions began by adjusting current intensities (25-100 μA) and pulse width of the monophasic stimulation pulse (100-250 μsec) to produce a field excitatory postsynaptic potential (fEPSP) that was 50-60% of the maximum amplitude of the population-spike free response which typically ranged between 4 and 8 mV. Recording signals were amplified and filtered with a band pass of 1 Hz to 5 kHz and fed into a PC running specialized software (NacGather) that digitizes measures and stores the evoked responses.
Hippocampal animals (subjects with electrodes implanted into hippocampus) were randomly assigned to one of 3 groups, i.e., Compound X alone, Compound X plus physostigmine, physostigmine alone. Cortical animals (subjects with electrodes implanted into olfactory cortex) were randomly assigned to 5 groups, i.e., Compound X alone, Compound X plus physostigmine, physostigmine alone, Compound X plus galantamine, galantamine alone. […] If changes in baseline greater than +5% were observed, the experiment was terminated for that day. All other animals were injected with test compound 20 min after vehicle, and fEPSP recording was continued for at least 2 hours, but 4 hrs if the drug effect was still present at 2 hrs. In cases where animals were used repeatedly, a minimum of three washout days followed each test session. Responses were sampled once every 20 sec throughout the experiment.
Compound X was kept frozen at approximately −20° C. in a freezer as a powder. Immediately prior the powder was dissolved in double distilled water (ddw) to make a 12 mg/ml stock and then diluted by 50% for injection at 6 mg/kg at a final volume of 1 ml/kg.
Physostigmine (eserine hemisulfate) was purchased from Sigma Aldrich and dissolved in ddw to make a 1 mg/ml stock solution. […]

N[C@@H](C(=O)N1CCCC1)[C@@H](O)c1ccncc1 [Compound X, (2R,3S)-2-amino-3-hydroxy-3-(pyridin-4-yl)-1-(pyrrolidin-1-yl)propan-1-one]
activity on basal excitatory synaptic transmission (in words) [1]: significant facilitatory activity | DRUG FEPSP AMPLITUDE [% OF PRE-VEHICLE BASELINE ± S.E.M.] [1]: 7.86 ± 2.98 % OF PRE-VEHICLE BASELINE | activity on basal excitatory synaptic transmission (in words) ([2]; galantamine 1 mg/kg ip): significant facilitatory activity | activity on basal excitatory synaptic transmission (in words) ([2]; physostigmine 0.1 mg/kg ip): significant facilitatory activity | DRUG FEPSP AMPLITUDE [% OF PRE-VEHICLE BASELINE ± S.E.M.] ([2]; galantamine 1.0 mg/kg): 10.67 + 1.67 % OF PRE-VEHICLE BASELINE | DRUG FEPSP AMPLITUDE [% OF PRE-VEHICLE BASELINE ± S.E.M.] ([2]; physostigmine 0.1 mg/kg): 10.67 + 1.67 % OF PRE-VEHICLE BASELINE

COc1ccc2c3c1O[C@H]1C[C@@H](O)C=C[C@@]31CCN(C)C2 [Galantamine, reference compound]
activity on basal excitatory synaptic transmission (in words) ([2]; galantamine 1 mg/kg ip): inactive | DRUG FEPSP AMPLITUDE [% OF PRE-VEHICLE BASELINE ± S.E.M.] ([2]; galantamine 1.0 mg/kg): 3.13 + 1.73 % OF PRE-VEHICLE BASELINE

CNC(=O)Oc1ccc2c(c1)[C@]1(C)CCN(C)[C@@H]1N2C [Physostigmine, reference compound]
activity on basal excitatory synaptic transmission (in words) [1]: inactive | DRUG FEPSP AMPLITUDE [% OF PRE-VEHICLE BASELINE ± S.E.M.] [1]: 2.33 + 2.91 % OF PRE-VEHICLE BASELINE | DRUG FEPSP AMPLITUDE [% OF PRE-VEHICLE BASELINE ± S.E.M.] ([2]; physostigmine 0.1 mg/kg): 5.30 + 0.69 % OF PRE-VEHICLE BASELINE
